One assay concerns SNU-16 cells. Kind of assay: SNU-16 cell-based viability assay (CellTiter-Glo). The conditions noted are these: Homo sapiens. The text has this:
For determining the covalent nature of compounds, a simple cell-based assay was employed. SNU-16 cells were obtained from ATCC (Cat #CRL-5974; American Type Culture Collection; Manassas, Va. 20110) for this assay. SNU-16 is a cultured line derived in 1987 by J. Park and associates from ascites of a patient with poorly differentiated gastric carcinoma of the stomach, and cells were collected from the patient prior to chemotherapy. The cells express the surface glycoproteins carcinoembryonic antigen (CEA) and TAG-72. No evidence of amplification or rearrangements has been noted in the N-myc, L-myc, myb and EGF receptor genes, although the c-myc proto-oncogene is amplified. There was no expression of the following genes: N-myc, L-myc, c-cis, IGF-2, or gastrin releasing peptide. These cells are known to have an FGFR2 amplification and are therefore relevant for the compound testing at hand (1). For this assay, cells were plated on poly-D-lysine to maintain attachment. Cells were either exposed to compound for 2 hours or 72 hours to test the ability of the compound to stay on target after binding. Briefly, 80 μL cell solution containing 5000 SNU-16 cells was plated per well into 96-well Poly-D-Lysine Cellware plate and incubated in 37° C. incubator overnight to facilitate adherence. Compounds were solubilized fresh from powder as dimethylsulfoxide stocks (DMSO), and plated as half log, 9 point dilutions in DMSO and then plated into cell media containing RPMI1640+10% FBS for ease of transfer without disrupting cells. Total volume in cells was 100 uL. For cells exposed to compound for two hours, cells were incubated in 37° C. incubator for 2 hours, upon which time plates were removed and cells were centrifuged at 1500 rpm for 5 min, followed by removal of all supernatant, and the re-dispense 100 μL of RPMI1640+10% FBS per well. This was repeated twice. Plates were put back into the incubator for 72 hours. For cells exposed to compound for 72 hours, plates were removed from the incubator for the time of washing but not disturbed, and then placed back in the incubator without washing. Assay plates were read for total ATP by luminescent CTG signal at the end of the 72 hour incubation by adding 100 μL of CTG (Cell TiterGlo: Cat #G9241; Promega Corporation, Madison, Wis., 53711) per well, followed by gently agitating the contents for 2 min on the plate shaker, and incubating the plates for 10 min at room temperature in dark. […] Clin Cancer Res 2010; 16:5750-8.

Another assay has as its target T1, Human FGFR2 wildtype (Homo sapiens, UniProt P21802).
T1 construct: purchased Reaction Biology Corporation (contract assay; enzyme is the CRO's own)
Nature of the assay: FGFR2 wildtype kinase assay (Reaction Biology HotSpot). Format: biochemical. The following applies: ATP at Km; read-out: FGFR2 (WT) Km IC50. Here is the method:
(§1) Biochemical assays were run at Reaction Biology (Reaction Biology Corporation, 1 Great Valley Parkway, Suite 2, Malvern, Pa. 19355, USA). The Reaction Biology (http://www.reactionbiology.com) HotSpot assay platform was used to measure kinase/inhibitor interactions as described previously (Anastassiadis et al., 2011). In brief, for each reaction, kinase and substrate were mixed in a buffer containing 20 mM HEPES (pH 7.5), 10 mM MgCl2, 1 mM EGTA, 0.02% Brij35, 0.02 mg/mL BSA, 0.1 mM Na3VO4, 2 mM DTT, and 1% DMSO. All compounds were in powder form and freshly solubilized in DMSO for assays. Compounds were then added to each reaction mixture via acoustic dispensing using an ECHO 550 nanoliter dispenser. For Human FGFR2 wildtype testing, a peptide substrate, poly[Glu:Tyr] (4:1) was used to promote the reaction at a concentration of 0.2 mg/ml, with a final ATP concentration as determined by Reaction Biology. For Human FGFR2 (V565F) testing, a peptide substrate, poly[Glu:Tyr] (4:1) was used to promote the reaction at a concentration of 0.2 mg/ml, with a final ATP concentration as determined by Reaction Biology. Compounds were tested in 10-dose IC50 mode with a 3-fold serial dilution. After a 20-min incubation, ATP (Sigma-Aldrich, St. Louis, Mo. 63178) and [g33P] ATP (specific activity 10 microCi/microliter) purchased at PerkinElmer (Boston, Mass., 02118 Cat #BLU 003H250UC) were added at a final total concentration of 10 mM. Reactions were carried out at room temperature for 2 hr and spotted onto P81 ion exchange cellulose chromatography paper (Reaction Biology). Filter paper was washed in 0.75% phosphoric acid to remove unincorporated ATP. The percent remaining kinase activity relative to a vehicle-containing (DMSO) kinase reaction was calculated for each kinase/inhibitor pair. IC50 values were calculated using Prism 5 (GraphPad).

The next assay addresses T2, Human FGFR2 (V565F) (Homo sapiens, UniProt P21802, V564F).
T2 construct: purchased Reaction Biology Corporation (contract assay; enzyme is the CRO's own)
Nature of the assay: FGFR2 V565F mutation kinase assay (Reaction Biology HotSpot). The following applies: 100 uM ATP. Format: biochemical. Here is the method:
as §1, with “ATP (specific activity 10 microCi/microliter) purchased at PerkinElmer (Boston, Mass., 02118 Cat #BLU 003H250UC) were added at a final total concentration of 10 mM.” left out

[1] abbreviates: cells exposed to compound for 2 hours, washed, read after 72 hour incubation, read-out: SNU-16 IC50 (nM) 2 h.
The mark [2] stands for this setting: cells exposed to compound for 72 hours, no washing, read-out: SNU-16 IC50 (nM) 72 h.

pIC50: −log10 of the molar value. Read-outs that look alike come from different tables or passages of the source. Bounds are passed on as bounds.

T2 sequence (P21802 22-822 isoform P21802-3 V565F limits assumed): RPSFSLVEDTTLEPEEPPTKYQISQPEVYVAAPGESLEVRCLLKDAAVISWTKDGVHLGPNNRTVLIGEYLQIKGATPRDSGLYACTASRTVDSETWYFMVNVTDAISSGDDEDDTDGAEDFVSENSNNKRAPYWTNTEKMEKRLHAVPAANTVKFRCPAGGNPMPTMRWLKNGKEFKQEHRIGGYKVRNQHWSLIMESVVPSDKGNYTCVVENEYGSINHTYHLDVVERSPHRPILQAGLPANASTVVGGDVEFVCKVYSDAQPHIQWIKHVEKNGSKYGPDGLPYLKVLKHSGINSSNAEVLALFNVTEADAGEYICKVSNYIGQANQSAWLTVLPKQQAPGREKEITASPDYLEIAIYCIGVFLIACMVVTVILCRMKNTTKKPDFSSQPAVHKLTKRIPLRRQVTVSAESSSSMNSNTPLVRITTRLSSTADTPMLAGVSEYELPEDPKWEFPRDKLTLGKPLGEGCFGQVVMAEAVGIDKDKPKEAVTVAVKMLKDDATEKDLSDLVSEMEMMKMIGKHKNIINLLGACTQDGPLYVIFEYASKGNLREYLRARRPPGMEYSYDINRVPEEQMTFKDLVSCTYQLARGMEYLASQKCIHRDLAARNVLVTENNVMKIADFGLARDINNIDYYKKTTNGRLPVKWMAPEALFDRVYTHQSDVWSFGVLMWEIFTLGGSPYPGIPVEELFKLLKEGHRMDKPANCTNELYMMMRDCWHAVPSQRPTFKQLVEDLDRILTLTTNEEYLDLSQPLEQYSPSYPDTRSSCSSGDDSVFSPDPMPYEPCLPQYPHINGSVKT
T1 sequence (P21802 22-821): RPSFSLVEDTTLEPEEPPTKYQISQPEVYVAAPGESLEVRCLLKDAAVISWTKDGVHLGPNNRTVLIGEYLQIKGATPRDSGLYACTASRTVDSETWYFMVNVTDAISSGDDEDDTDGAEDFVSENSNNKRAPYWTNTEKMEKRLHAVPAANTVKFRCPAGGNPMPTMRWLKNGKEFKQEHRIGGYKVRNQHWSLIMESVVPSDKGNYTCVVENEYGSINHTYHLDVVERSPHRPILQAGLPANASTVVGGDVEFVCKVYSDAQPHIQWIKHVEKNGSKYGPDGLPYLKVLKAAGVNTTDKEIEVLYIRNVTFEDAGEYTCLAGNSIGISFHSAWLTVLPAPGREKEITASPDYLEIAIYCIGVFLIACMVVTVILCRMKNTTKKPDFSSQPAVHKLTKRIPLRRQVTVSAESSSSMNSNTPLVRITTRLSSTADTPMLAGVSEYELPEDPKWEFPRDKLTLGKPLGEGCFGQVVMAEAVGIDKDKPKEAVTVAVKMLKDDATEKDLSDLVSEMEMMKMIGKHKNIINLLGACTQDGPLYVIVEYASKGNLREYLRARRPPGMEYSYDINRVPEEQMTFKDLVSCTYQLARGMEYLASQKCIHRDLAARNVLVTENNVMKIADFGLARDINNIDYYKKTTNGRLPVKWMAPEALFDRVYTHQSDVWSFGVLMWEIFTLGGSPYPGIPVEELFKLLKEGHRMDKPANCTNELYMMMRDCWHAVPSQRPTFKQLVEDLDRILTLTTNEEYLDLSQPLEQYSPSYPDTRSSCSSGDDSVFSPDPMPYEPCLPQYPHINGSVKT

Turning to `C=CC(=O)N1C[C@@H](c2cc(C#Cc3cc(OC)cc(OC)c3)c3c(N)ncnn23)C[C@@H]1COC` (single isomer, unassigned) [Chemical Synthesis Example 1], the values for the IC50 in the assay on SNU-16 cells (setting [1]) and in the assay on SNU-16 cells (setting [2]) were 1000 to 10000 nM and 10 to 100 nM, respectively.
For the compound `C=CC(=O)N1C[C@H](c2cc(C#Cc3cc(OC)cc(OC)c3)c3c(N)ncnn23)C[C@@H]1COC` (single isomer, unassigned) [Chemical Synthesis Example 2], the pIC50 at Human FGFR2 wildtype was not below 8.00; on Human FGFR2 (V565F) it was 7.00 to 8.00. The 50% inhibitory concentration (IC50) in the assay with SNU-16 cells (setting [1]) and in the assay on SNU-16 cells (setting [2]) was not above 10 nM throughout.
For `C=CC(=O)N1CC(c2cc(C#Cc3c(F)c(OC)cc(OC)c3F)c3c(N)ncnn23)C[C@@H]1COC` (single isomer, unassigned) [Chemical Synthesis Example 3], the IC50 in the assay with SNU-16 cells (setting [1]) was in the range of 1000 to 10000 nM; in the assay with SNU-16 cells (setting [2]) it was 100 to 1000 nM.
For the compound `C=CC(=O)N1CC(c2cc(C#Cc3c(F)c(OC)cc(OC)c3F)c3c(N)ncnn23)C[C@@H]1COC` (single isomer, unassigned) [Chemical Synthesis Example 4], the pIC50 at Human FGFR2 wildtype and against Human FGFR2 (V565F) was not below 8.00 throughout. Moreover, the IC50 in the assay with SNU-16 cells (setting [1]) and with SNU-16 cells (setting [2]) was not above 10 nM throughout.
With `C=CC(=O)N1CC(c2cc(C#Cc3cc(OC)cc(OC)c3F)c3c(N)ncnn23)C[C@@H]1COC` (single isomer, unassigned) [Chemical Synthesis Example 5], the figures for the IC50 in the assay with SNU-16 cells (setting [1]) and in the assay with SNU-16 cells (setting [2]) were 1000 to 10000 nM and 100 to 1000 nM, respectively.
With `C=CC(=O)N1CC(c2cc(C#Cc3cc(OC)cc(OC)c3F)c3c(N)ncnn23)C[C@@H]1COC` (single isomer, unassigned) [Chemical Synthesis Example 6], the negative-log IC50 (pIC50) at Human FGFR2 wildtype was not below 8.00; against Human FGFR2 (V565F), 7.00 to 8.00. For the same compound, the half-inhibitory concentration (IC50) in the assay with SNU-16 cells (setting [1]) and in the assay on SNU-16 cells (setting [2]) was not above 10 nM throughout.

The term IC50 denotes the concentration needed to halve the response being measured. What is called pIC50 is the negative decadic logarithm of the IC50, by convention in mol/L.

(Values after patent US20230174535A1, “INHIBITORS OF FIBROBLAST GROWTH FACTOR RECEPTOR KINASES” (Kinnate Biopharma Inc., priority 2019, published 2023).)
